Reference: US11647750B2, “Active compound combinations having insecticidal/acaricidal properties” (Bayer Aktiengesellschaft, priority 2017, dated 2023)
Read-outs that look alike come from different tables or passages of the source.

Experiments:
Format in all cases: in vivo
Tetranychus urticae [1] = experiment: Tetranychus urticae spray test, OP-resistant (French bean leaf disks)
Method: (§1) • The expected efficacy of a given combination of two compounds is calculated as follows (see Colby, S. R., “Calculating Synergistic and antagonistic Responses of Herbicide Combinations”, Weeds 15, pp. 20-22, 1967): • If • X is the efficacy expressed in % mortality of the untreated control for test compound A at a concentration of m ppm respectively m g/ha, • Y is the efficacy expressed in % mortality of the untreated control for test compound B at a concentration of n ppm respectively n g/ha, • E is the efficacy expressed in % mortality of the untreated control using the mixture of A and B at m and n ppm respectively m and n g/ha, • then is
(§2) [formula] • If the observed insecticidal efficacy of the combination is higher than the one calculated as “E”, then the combination of the two compounds is more than additive, i.e. there is a synergistic effect.
Tetranychus urticae—Spray Test OP-Resistant
(§3) • Solvent: 78.0 parts by weight acetone 1.5 parts by weight dimethylformamide • Emulsifier: alkylarylpolyglycol ether
(§4) To produce a suitable preparation of active compound, 1 part by weight of active compound is mixed with the stated amount of solvents and is diluted with water, containing an emulsifier concentration of 1000 ppm, to the desired concentration. To produce a suitable preparation of a spore suspension the spores are diluted with emulsifier containing water to the desired concentration. Further test concentrations are prepared by dilution with emulsifier containing water.
French bean (Phaseolus vulgaris) leaf disks infected with all instars of the two spotted spidermite (Tetranychus urticae), are sprayed with a preparation of the active ingredient of the desired concentration.
After the specified period of time, mortality in % is determined. 100% means all spider mites have been killed and 0% means none of the spider mites have been killed. The mortality values determined thus are recalculated using the Colby-formula (see above).

Myzus persicae = Myzus persicae spray test (Chinese cabbage leaf disks); conditions: mortality
Method: as §1, §2
Myzus persicae Spray Test
as §3, §4
Chinese cabbage (Brassica pekinensis) leaf disks infected with all instars of the green peach aphid (Myzus persicae), are sprayed with a preparation of the active ingredient of the desired concentration.
After the specified period of time, mortality in % is determined. 100% means all aphids have been killed; 0% means none of the aphids have been killed. The mortality values determined thus are recalculated using the Colby-formula (see above).

Tetranychus urticae [2] = experiment: Tetranychus urticae spray test; OP-resistant (bean plants); conditions: mortality
Method: as §1, §2
Tetranychus urticae Spray Test; OP-Resistant
Solvent: 7 parts by weight of dimethylformamide
Emulsifier: alkylaryl polyglycol ether
To produce a suitable preparation of active compound, 1 part by weight of active compound is mixed with the stated amount of solvent and is diluted with water, containing an emulsifier concentration of 1000 ppm, to the desired concentration. Further test concentrations are prepared by dilution with emulsifier containing water.
Bean plants (Phaseolus vulgaris) which are heavily infested with all stages of the two-spotted spider mite (Tetranychus urticae) are treated by being sprayed with the preparation of the active compound of the desired concentration.
After the specified period of time mortality in % is determined. 100% means all the spider mites have been killed and 0% means none of the spider mites have been killed. The mortality values determined thus are recalculated using the Colby-formula (see above).

Meloidogyne incognita = Meloidogyne incognita test (gall formation on salad roots); conditions: nematicidal activity on the basis of gall formation
Method: as §1, §2
Meloidogyne incognita—Test
Solvent: 125.0 parts by weight of acetone
To produce a suitable preparation of active compound, 1 part by weight of active compound is mixed with the stated amount of solvent, and the concentrate is diluted with water to the desired concentration. To produce a suitable preparation of a spore suspension the spores are diluted with water to the desired concentration.
Vessels are filled with sand, a solution of the active ingredient, a suspension containing eggs and larvae of the southern root-knot nematode (Meloidogyne incognita) and salad seeds. The salad seeds germinate and the seedlings grow. Galls develop in the roots.
After the specified period of time nematicidal activity is determined on the basis of the percentage of gall formation. 100% means no galls were found and 0% means the number of galls found on the roots of the treated plants was equal to that in untreated control plants.

[3] = Tetranychus urticae, foliar, 144 h, read-out: Efficacy in % after 6 days
[4] = Tetranychus urticae, foliar, 144 h, 0.5 g ai/ha, mortality, 6 days, read-out: Efficacy in % after 6 days
[5] = Tetranychus urticae, foliar, 144 h, 0.6 g ai/ha, mortality, 6 days, read-out: Efficacy in % after 6 days

COCCOC(=O)C(C#N)(C(=O)c1ccccc1C(F)(F)F)c1ccc(C(C)(C)C)cc1 (racemic) [Cyflumetofen, 2-methoxyethyl (RS)-2-(4-tert-butylphenyl)-2-cyano-3-oxo-3-(α,α,α-trifluoro-o-tolyl)propionate]
Efficacy in % after 2 days (Tetranychus urticae [1]; 0.5 g ai/ha, mortality): 0%
pest or weed control at 0.5 g/ha (Tetranychus urticae [1]; [3]): 0%

Cc1cc(F)c(N=C2SCC(=O)N2CC(F)(F)F)cc1[S+]([O-])CC(F)(F)F (centres unmarked) [Cpd of formula (I)]
Efficacy in % after 6 days (Myzus persicae; 2 g ai/ha): 0%
Efficacy in % after 6 days (Myzus persicae; 8 g ai/ha): 0%
Efficacy in % after 2 days (Tetranychus urticae [1]; 0.125 g ai/ha, mortality): 0%
Efficacy in % after 2 days (Tetranychus urticae [1]; 0.5 g ai/ha, mortality): 0%
pest or weed control at 0.125 g/ha (Tetranychus urticae [1]; Tetranychus urticae, foliar, 144 h, 0.125 g ai/ha, mortality, 6 days, read-out: Efficacy in % after 6 days): 0%
pest or weed control at 0.3 g/ha (Tetranychus urticae [1]; Tetranychus urticae, foliar, 144 h, 0.3 g ai/ha, mortality, 6 days, read-out: Efficacy in % after 6 days): 0%
pest or weed control at 0.5 g/ha (Tetranychus urticae [1]; [4]): 0%
pest or weed control at 0.6 g/ha (Tetranychus urticae [1]; [5]): 0%
Efficacy in % after 3 days (Tetranychus urticae [2]; 0.4 ppm): 0%
Efficacy in % after 7 days (Tetranychus urticae [2]; 0.8 ppm): 30%
Efficacy in % after 14 days (Meloidogyne incognita; 1 ppm): 0%
Efficacy in % after 14 days (Meloidogyne incognita; 2 ppm): 70%

Cc1cc(Cl)cc(C)c1C1=C(O)C2(CCC3(CC2)OCCO3)NC1=O [Cpd of formula (IIa)]
Efficacy in % after 6 days (Myzus persicae; 16 g ai/ha): 0%
Efficacy in % after 2 days (Tetranychus urticae [1]; 1 g ai/ha, mortality): 0%
pest or weed control at 1 g/ha (Tetranychus urticae [1]; Tetranychus urticae, foliar, 144 h, 1 g ai/ha, mortality, 6 days, read-out: Efficacy in % after 6 days): 0%

Cc1ccc(-c2ccc(F)cc2)c(C)c1C1=C(O)C2(CCOCC2)NC1=O [Cpd of formula (IIb)]
Efficacy in % after 2 days (Tetranychus urticae [1]; 0.5 g ai/ha, mortality): 0%
pest or weed control at 0.5 g/ha (Tetranychus urticae [1]; [4]): 0%

Cc1nn(C)c(/C(OC(=O)C(C)(C)C)=C(\C#N)c2ccc(C(C)(C)C)cc2)c1C [Cyenopyrafen, (E)-2-(4-tert-butylphenyl)-2-cyano-1-(1,3,4-trimethylpyrazol-5-yl)vinyl 2,2-dimethylpropionate]
Efficacy in % after 6 days (Myzus persicae; 0.5 g ai/ha): 0%
Efficacy in % after 6 days (Myzus persicae; 2 g ai/ha): 0%
pest or weed control at 0.125 g/ha (Tetranychus urticae [1]; [3]): 0%

COC(c1ccc(N(C(=O)c2c(C)nn(C)c2C)C(=O)C(C)C)cc1CC(C)C)(C(F)(F)F)C(F)(F)F [Pyflubumide, 3′-isobutyl-N-isobutyryl-1,3,5-trimethyl-4′-[2,2,2-trifluoro-1-methoxy-1-(trifluoromethyl)ethyl]pyrazole-4-carboxanilide]
Efficacy in % after 2 days (Tetranychus urticae [1]; 0.0125 g ai/ha, mortality): 0%
pest or weed control at 0.0125 g/ha (Tetranychus urticae [1]; Tetranychus urticae, foliar, 144 h, 0.0125 g ai/ha, mortality, 6 days, read-out: Efficacy in % after 6 days): 0%
pest or weed control at 0.6 g/ha (Tetranychus urticae [1]; [5]): 70%

Cc1cc(C)c(C2=C(OC(=O)CC(C)(C)C)C3(CCCC3)OC2=O)c(C)c1 [Spiromesifen, 3-mesityl-2-oxo-1-oxaspiro[4.4]non-3-en-4-yl 3,3-dimethylbutyrate]
Efficacy in % after 2 days (Tetranychus urticae [1]; 0.05 g ai/ha, mortality): 0%
pest or weed control at 0.05 g/ha (Tetranychus urticae [1]; [3]): 0%
pest or weed control at 0.6 g/ha (Tetranychus urticae [1]; [3]): 0%

CCOC(=O)OC1=C(c2cc(C)ccc2C)C(=O)N[C@]12CC[C@@H](OC)CC2 [Spirotetramat, cis-4-(ethoxycarbonyloxy)-8-methoxy-3-(2,5-xylyl)-1-azaspiro[4.5]dec-3-en-2-one]
Efficacy in % after 2 days (Tetranychus urticae [1]; 0.05 g ai/ha, mortality): 0%
pest or weed control at 0.05 g/ha (Tetranychus urticae [1]; [3]): 0%
Efficacy in % after 7 days (Tetranychus urticae [2]; 2 ppm): 40%
Efficacy in % after 14 days (Meloidogyne incognita; 30 ppm): 0%
Efficacy in % after 14 days (Meloidogyne incognita; 60 ppm): 0%

abamectin
Efficacy in % after 2 days (Tetranychus urticae [1]; 0.00125 g ai/ha, mortality): 0%
Efficacy in % after 6 days (Tetranychus urticae [1]; 0.015 g ai/ha, mortality, 6 days): 70%
Efficacy in % after 6 days (Tetranychus urticae [1]; 0.03 g ai/ha, mortality, 6 days): 70%
Efficacy in % after 3 days (Tetranychus urticae [2]; 0.01 ppm): 0%

emamectin benzoate [Emamectin-benzoate]
Efficacy in % after 2 days (Tetranychus urticae [1]; 0.003125 g ai/ha, mortality): 0%
Efficacy in % after 6 days (Tetranychus urticae [1]; 0.003125 g ai/ha, mortality, 6 days): 0%
Efficacy in % after 2 days (Tetranychus urticae [1]; 0.0125 g ai/ha, mortality): 0%
Efficacy in % after 6 days (Tetranychus urticae [1]; 0.0125 g ai/ha, mortality, 6 days): 0%
Efficacy in % after 6 days (Tetranychus urticae [1]; 0.15 g ai/ha, mortality, 6 days): 0%

milbemectin
Efficacy in % after 6 days (Tetranychus urticae [1]; 0.75 g ai/ha, mortality, 6 days): 0%
Efficacy in % after 6 days (Tetranychus urticae [1]; 1.5 g ai/ha, mortality, 6 days): 0%

spinosad
Efficacy in % after 2 days (Tetranychus urticae [1]; 0.03125 g ai/ha, mortality): 0%
Efficacy in % after 6 days (Tetranychus urticae [1]; 0.03125 g ai/ha, mortality, 6 days): 0%
Efficacy in % after 6 days (Tetranychus urticae [1]; 0.125 g ai/ha, mortality, 6 days): 0%
